Measurements: patent EP4592286A1, “MACROCYCLIC NITROGEN-CONTAINING CROWN ETHER COMPOUND AND USE THEREOF AS PROTEIN KINASE INHIBITOR” (Artivila Biopharma, priority 2022, dated 2024)

Tests used:
Type in all cases: biochemical
[1] = target: T1, JAK3 (Homo sapiens, UniProt P52333); test: experiment of inhibiting kinase activity (Caliper mobility shift assay), JAK3; conditions: for inhibition at 0.1 µM: at 100 nM; for inhibition at 0.1 µM / inhibition at 0.01 µM: read-out: inhibition rate JAK3; for inhibition at 0.01 µM: at 10 nM
T1 sequence (P52333 1-1124): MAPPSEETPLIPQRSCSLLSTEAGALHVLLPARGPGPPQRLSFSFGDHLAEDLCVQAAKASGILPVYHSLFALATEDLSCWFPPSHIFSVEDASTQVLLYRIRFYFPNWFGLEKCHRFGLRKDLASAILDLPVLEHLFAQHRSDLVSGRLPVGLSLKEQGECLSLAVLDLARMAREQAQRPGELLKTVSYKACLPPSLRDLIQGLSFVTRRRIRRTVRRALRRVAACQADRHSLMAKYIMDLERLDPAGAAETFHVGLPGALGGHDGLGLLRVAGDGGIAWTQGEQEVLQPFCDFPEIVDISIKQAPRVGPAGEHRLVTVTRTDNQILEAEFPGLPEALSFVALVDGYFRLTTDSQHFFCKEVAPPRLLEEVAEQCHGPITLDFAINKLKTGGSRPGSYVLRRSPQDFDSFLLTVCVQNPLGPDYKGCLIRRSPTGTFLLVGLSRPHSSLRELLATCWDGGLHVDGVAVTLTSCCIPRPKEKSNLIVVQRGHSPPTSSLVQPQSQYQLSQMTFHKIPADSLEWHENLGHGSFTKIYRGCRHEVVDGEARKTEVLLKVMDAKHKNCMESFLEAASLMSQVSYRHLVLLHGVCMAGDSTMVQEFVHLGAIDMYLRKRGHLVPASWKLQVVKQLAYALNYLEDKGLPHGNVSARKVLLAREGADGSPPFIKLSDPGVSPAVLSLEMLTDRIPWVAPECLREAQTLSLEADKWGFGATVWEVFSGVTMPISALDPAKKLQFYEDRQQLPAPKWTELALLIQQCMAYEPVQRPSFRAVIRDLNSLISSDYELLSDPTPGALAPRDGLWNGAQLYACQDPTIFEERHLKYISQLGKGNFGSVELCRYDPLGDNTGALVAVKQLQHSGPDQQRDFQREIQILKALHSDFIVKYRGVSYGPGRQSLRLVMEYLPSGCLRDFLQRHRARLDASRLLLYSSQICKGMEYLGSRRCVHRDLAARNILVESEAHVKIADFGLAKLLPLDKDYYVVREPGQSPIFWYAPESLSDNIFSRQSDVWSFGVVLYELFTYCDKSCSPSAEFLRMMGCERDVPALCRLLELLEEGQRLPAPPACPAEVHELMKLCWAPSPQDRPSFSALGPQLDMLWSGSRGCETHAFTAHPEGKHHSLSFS
Experimental: (§1) The inhibition rates of tested compounds on JAK1, JAK2, JAK3, TYK2, CDK7, CDK9, EGFR (T790M) and LRRK2 kinases were measured. The test concentrations of the compounds were 10 nM and 100 nM, and the detection was performed by replicate wells. Alternatively, compounds were 3-fold serial diluted from 10 µM for 10 concentrations in replicate wells.
(§2) The inhibitory effects of the compounds on JAK1, JAK2, JAK3, CDK7 and CDK9 kinases were detected by the method of Caliper mobility shift assay. 250 nL of the compound at 100-fold final concentration was transferred to a destination plate 384-well-plate by using a liquid handler Echo 550. A kinase solution at 2.5-fold final concentration was prepared with 1×kinase buffer. 10 µL of the kinase solution with 2.5-fold final concentration was added to compound wells and positive control wells; and 10 µL of 1×kinase buffer was added to negative control wells. The mixture was centrifuged at 1000 rpm for 30 seconds and then incubated at room temperature for 10 minutes. A mixed solution of ATP and kinase substrate at 5/3-fold final concentration was prepared with 1×kinase buffer, and 15 µL of the mixed solution of ATP and substrate at 5/3-fold final concentration was added to start the reaction. The 384-well plate was centrifuged at 1000 rpm for 30 seconds, shaked and mixed evenly, then incubated at room temperature for a corresponding time. 30 µL of stop solution was added to stop the kinase reaction, the mixture was centrifuged at 1000 rpm for 30 seconds, and shaked and mixed evenly. The conversion rate was read by Caliper EZ Reader. The conversion inhibition rate%=(average positive control conversion rate%-sample conversion rate%)/(average positive control conversion rate%-average negative control conversion rate%). Where negative control wells represent the conversion readings of the background well of kinase buffer; and positive control wells represent the conversion readings of wells without compound inhibition. With the log value of concentration as the x axis and the percentage inhibition rate as the y axis, the dose-response curve was fitted by the log (inhibitor) vs. response-variable slope of the analyzing softwar GraphPad Prism 5, and the IC50 values of each compound on enzyme activity were obtained. Calculation formula is as follows: y=Bottom+(Top-Bottom)/(1+10^((LogIC50-x)×hillslope)), where x is logarithm of inhibitor concentration; and Y is % inhibition rate.

[2] = target: TYK2 (Homo sapiens, UniProt P29597); test: experiment of inhibiting kinase activity, TYK2; conditions: read-out: inhibition rate TYK2; for inhibition at 0.1 µM: at 100 nM; for inhibition at 0.01 µM: at 10 nM
Experimental: as §1

[3] = target: CDK7 (Homo sapiens, UniProt P50613); test: experiment of inhibiting kinase activity (Caliper mobility shift assay), CDK7; conditions: for inhibition at 0.1 µM: at 100 nM; for inhibition at 0.1 µM / inhibition at 0.01 µM: read-out: inhibition rate CDK7; for inhibition at 0.01 µM: at 10 nM; for IC50: kinase activity assay, Table 3
Experimental: as §1, §2

[4] = target: JAK2 (Homo sapiens, UniProt O60674); test: experiment of inhibiting kinase activity (Caliper mobility shift assay), JAK2; conditions: for inhibition at 0.01 µM: at 10 nM; for inhibition at 0.01 µM / inhibition at 0.1 µM: read-out: inhibition rate JAK2; for inhibition at 0.1 µM: at 100 nM
Experimental: as §1, §2

[5] = target: LRRK2 (Homo sapiens, UniProt Q5S007); test: experiment of inhibiting kinase activity, LRRK2; conditions: for inhibition at 0.1 µM: at 100 nM; for inhibition at 0.1 µM / inhibition at 0.01 µM: read-out: inhibition rate LRRK2; for inhibition at 0.01 µM: at 10 nM; for IC50: kinase activity assay, Table 3
Experimental: as §1

Sequence of CDK7 (P50613 whole entry, species assumed): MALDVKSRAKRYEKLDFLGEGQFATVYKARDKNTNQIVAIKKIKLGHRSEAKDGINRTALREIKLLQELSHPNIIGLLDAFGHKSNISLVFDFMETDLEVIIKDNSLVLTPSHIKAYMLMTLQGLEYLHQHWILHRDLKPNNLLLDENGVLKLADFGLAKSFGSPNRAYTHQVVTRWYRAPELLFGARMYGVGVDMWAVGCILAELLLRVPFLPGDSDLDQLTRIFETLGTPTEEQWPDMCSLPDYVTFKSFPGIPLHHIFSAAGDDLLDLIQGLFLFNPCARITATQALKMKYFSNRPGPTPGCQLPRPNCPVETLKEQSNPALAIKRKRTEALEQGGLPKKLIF
Sequence of CDK7 (P51946 whole entry partner, species assumed): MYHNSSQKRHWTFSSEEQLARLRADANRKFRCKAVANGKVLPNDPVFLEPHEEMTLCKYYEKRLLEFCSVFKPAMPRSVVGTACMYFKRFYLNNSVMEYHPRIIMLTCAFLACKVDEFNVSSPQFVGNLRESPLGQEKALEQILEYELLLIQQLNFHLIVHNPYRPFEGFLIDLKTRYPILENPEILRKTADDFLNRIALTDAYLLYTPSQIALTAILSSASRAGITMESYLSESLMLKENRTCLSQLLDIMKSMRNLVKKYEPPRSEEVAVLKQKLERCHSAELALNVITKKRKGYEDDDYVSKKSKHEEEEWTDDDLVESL
Sequence of CDK7 (P51948 whole entry partner, species assumed): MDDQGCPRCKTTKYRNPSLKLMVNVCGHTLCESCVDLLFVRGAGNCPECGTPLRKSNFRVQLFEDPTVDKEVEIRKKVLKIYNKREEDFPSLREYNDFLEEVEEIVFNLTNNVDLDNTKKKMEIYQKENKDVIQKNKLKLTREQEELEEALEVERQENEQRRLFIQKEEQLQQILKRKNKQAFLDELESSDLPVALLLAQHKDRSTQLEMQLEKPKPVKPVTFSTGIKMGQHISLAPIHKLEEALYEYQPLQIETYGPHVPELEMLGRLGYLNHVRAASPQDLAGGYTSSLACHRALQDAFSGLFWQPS
Sequence of LRRK2 (Q5S007 whole entry): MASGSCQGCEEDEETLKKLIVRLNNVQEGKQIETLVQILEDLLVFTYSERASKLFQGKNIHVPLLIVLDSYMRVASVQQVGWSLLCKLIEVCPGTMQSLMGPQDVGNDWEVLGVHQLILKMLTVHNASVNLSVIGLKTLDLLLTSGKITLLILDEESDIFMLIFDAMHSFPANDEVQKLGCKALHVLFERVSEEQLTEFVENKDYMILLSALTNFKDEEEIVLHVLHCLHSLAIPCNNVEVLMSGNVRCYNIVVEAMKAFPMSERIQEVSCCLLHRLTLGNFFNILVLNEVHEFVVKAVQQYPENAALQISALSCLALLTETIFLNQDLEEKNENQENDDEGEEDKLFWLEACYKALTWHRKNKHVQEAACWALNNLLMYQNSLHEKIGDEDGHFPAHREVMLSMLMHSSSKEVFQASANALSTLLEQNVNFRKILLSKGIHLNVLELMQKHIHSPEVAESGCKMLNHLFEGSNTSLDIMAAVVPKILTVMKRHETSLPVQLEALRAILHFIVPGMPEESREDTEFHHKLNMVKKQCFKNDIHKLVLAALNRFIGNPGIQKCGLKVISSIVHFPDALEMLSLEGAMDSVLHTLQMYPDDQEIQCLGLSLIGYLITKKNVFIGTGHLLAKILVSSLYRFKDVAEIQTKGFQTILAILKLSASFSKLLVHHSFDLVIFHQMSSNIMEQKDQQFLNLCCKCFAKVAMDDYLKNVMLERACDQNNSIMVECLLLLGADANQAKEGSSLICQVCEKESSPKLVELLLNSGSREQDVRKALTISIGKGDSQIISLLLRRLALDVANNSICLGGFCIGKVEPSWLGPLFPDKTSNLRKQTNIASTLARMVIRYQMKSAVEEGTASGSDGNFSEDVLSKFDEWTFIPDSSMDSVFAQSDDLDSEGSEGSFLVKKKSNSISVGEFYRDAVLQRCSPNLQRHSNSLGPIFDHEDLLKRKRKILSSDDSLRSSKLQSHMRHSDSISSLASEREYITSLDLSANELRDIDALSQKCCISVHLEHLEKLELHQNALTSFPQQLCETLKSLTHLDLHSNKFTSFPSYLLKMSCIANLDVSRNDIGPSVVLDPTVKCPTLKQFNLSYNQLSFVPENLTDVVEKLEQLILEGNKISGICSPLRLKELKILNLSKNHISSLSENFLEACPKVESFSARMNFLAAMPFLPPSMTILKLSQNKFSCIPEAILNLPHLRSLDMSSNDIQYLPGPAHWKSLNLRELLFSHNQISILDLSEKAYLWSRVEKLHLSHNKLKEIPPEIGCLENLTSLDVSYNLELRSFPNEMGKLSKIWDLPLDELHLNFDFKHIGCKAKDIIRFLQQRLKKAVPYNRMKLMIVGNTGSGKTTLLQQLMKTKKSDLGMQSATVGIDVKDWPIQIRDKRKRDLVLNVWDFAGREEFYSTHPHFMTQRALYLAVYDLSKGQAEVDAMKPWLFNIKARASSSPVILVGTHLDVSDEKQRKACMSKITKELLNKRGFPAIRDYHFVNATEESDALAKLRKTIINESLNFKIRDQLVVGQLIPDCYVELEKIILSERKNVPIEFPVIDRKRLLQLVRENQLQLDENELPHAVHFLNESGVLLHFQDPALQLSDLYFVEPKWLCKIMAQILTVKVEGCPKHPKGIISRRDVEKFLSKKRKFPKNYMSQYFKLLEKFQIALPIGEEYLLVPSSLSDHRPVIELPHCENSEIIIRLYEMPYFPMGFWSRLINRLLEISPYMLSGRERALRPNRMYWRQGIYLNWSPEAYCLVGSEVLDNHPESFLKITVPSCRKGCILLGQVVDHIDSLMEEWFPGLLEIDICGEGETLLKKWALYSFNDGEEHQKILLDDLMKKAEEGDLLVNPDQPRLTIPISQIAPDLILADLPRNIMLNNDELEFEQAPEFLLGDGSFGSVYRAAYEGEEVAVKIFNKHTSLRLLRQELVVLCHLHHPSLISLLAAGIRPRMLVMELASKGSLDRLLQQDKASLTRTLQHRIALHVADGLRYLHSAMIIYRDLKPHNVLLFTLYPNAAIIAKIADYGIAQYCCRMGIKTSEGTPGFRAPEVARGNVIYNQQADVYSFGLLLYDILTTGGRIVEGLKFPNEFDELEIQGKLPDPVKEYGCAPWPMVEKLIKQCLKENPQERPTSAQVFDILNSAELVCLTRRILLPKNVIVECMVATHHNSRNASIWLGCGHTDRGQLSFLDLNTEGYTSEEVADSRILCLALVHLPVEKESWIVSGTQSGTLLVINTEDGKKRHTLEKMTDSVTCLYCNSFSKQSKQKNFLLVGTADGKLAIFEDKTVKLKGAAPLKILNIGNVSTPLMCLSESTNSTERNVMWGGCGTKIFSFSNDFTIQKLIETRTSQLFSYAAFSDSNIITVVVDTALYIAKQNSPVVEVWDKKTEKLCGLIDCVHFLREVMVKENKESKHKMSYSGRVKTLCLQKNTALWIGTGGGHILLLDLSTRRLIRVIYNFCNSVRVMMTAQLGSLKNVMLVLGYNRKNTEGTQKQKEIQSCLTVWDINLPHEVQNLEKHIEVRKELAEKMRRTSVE
Sequence of TYK2 (P29597 whole entry): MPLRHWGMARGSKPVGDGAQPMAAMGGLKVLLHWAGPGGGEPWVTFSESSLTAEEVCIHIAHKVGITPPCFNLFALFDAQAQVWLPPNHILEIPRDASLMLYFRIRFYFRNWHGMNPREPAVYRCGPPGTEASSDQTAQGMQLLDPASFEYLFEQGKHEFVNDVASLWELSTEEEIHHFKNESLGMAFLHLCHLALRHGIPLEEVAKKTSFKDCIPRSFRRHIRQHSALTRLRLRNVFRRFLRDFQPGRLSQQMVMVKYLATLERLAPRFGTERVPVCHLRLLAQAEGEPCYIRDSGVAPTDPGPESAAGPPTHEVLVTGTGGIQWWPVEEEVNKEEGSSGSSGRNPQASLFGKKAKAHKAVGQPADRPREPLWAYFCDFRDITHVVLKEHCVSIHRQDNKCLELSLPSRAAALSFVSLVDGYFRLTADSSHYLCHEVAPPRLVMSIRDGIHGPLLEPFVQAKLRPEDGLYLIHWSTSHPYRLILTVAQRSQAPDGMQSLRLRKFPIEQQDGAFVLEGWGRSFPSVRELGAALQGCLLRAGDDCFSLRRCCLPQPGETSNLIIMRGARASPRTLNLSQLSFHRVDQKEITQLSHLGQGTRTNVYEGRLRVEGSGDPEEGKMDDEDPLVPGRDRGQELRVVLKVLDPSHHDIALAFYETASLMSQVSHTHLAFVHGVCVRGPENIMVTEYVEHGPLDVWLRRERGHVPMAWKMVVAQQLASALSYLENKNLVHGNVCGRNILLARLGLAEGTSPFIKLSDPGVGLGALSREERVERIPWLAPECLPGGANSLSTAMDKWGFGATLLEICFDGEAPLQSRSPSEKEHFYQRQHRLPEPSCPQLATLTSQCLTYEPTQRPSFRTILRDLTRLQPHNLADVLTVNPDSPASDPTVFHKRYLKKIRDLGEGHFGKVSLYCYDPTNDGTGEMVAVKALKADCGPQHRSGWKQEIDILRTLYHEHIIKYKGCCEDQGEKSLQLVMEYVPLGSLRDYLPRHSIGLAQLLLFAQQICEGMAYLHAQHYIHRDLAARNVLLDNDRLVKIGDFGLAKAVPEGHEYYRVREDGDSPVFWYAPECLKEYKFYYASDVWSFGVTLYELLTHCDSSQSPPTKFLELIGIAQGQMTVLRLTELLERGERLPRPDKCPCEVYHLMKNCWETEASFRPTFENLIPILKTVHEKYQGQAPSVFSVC

SMILES | inhibition at 0.1 µM [1] [%] | IC50 ([1]; kinase activity assay, Table 3) [µM] | inhibition at 0.1 µM [2] [%] | inhibition at 0.1 µM [3] [%] | inhibition at 0.01 µM [4] [%] | inhibition at 0.1 µM [4] [%] | inhibition at 0.01 µM [1] [%] | inhibition at 0.01 µM [2] [%] | inhibition at 0.1 µM [5] [%] | inhibition at 0.01 µM [3] [%] | IC50 [3] [µM] | inhibition at 0.01 µM [5] [%] | IC50 [5] [µM] | IC50 ([4]; kinase activity assay, Table 3) [µM]
CN1CCOc2ccc(Nc3nc(-c4ccc(C(=O)NCC#N)cc4)c4cc[nH]c4n3)cc2OCC1 [Example 2] | > 80 | < 0.05 | > 80 | 25 to 39 |  |  |  |  |  |  |  |  |  | 
CC(C)S(=O)(=O)c1ccccc1Nc1nc(Nc2ccc3c(c2)OCCOCCN(C)CCO3)nc2[nH]ncc12 [Example 11, N^4-(2-(isopropylsulfonyl)phenyl)-N^6-(7-methyl-2,3,6,7,8,9-hexahydro-5H-benzo[b][1,4, 7]trioxa[10]azacyclododecan-13-yl)-1H-pyrazolo[3,4-d]pyrimidin-4,6-diamine] | > 80 |  | > 80 | 40 to 79 | 40 to 79 | > 80 | 40 to 79 | 25 to 39 | 40 to 79 |  |  |  |  | 
CC(C)S(=O)(=O)c1ccccc1Nc1nc(Nc2ccc3c(c2)OCCN(C)CCOCCO3)nc2[nH]ncc12 [Example 12, N^4-(2-(isopropylsulfonyl)phenyl)-N^6-(7-methyl-2,3,6,7,8,9-hexahydro-5H-benzo[b][1,4, 7]trioxa[10]azacyclododecan-12-yl)-1H-pyrazolo[3,4-d]pyrimidin-4,6-diamine] | 25 to 39 |  |  | > 80 |  | 40 to 79 |  |  | > 80 | 40 to 79 | < 0.05 | 25 to 39 | < 0.05 | 
CN1CCOCCOc2ccc(Nc3nc(Nc4cccc(S(=O)(=O)NC(C)(C)C)c4)c4cc[nH]c4n3)cc2OCC1 [Example 19, N-(tert-butyl)-3-((2-((7-methyl-2,3,6,7,8,9-hexahydro-5H-benzo[b][1,4,7]trioxa[10]azacyclododecan-12-yl)amino)-7H-pyrrolo[2,3-d]pyrimidin-4-yl)amino)benzenesulfonamide] | 40 to 79 |  | 25 to 39 | 40 to 79 | 40 to 79 | > 80 |  |  | > 80 |  | < 0.05 | 40 to 79 | < 0.05 | < 0.05
CN1CCOCCOc2cc(Nc3nc(-c4cn(C)c5ccccc45)c4cn[nH]c4n3)ccc2OCC1 [Example 24, 7-methyl-N-(4-(1-methyl-1H-indol-3-yl)-1H-pyrazolo[3,4-d]pyrimidin-6-yl)-2,3,6,7,8,9-hexahydro-5H-benzo[b][1,4,7]trioxa[10]azacyclododecan-13-amine] |  |  |  | 40 to 79 |  | 40 to 79 |  |  | 25 to 39 |  |  |  |  | 
CN1CCOCCOc2cc(Nc3nc(Nc4ccccc4P(C)(C)=O)c4cn[nH]c4n3)ccc2OCC1 [Example 33, dimethyl(2-((6-((7-methyl-2,3,6,7,8,9-hexahydro-5H-benzo[b][1,4,7]trioxa[10]azacyclododecan-13-yl)amino)-1H-pyrazolo[3,4-d]pyrimidin-4-yl)amino)phenyl)phosphine oxide] | > 80 |  |  | 40 to 79 |  | 40 to 79 | 25 to 39 |  | > 80 |  |  | > 80 | < 0.05 | 
CC(C)S(=O)(=O)c1ccccc1Nc1nc(Nc2ccc3c(c2)OCCN(C)CCO3)nc2[nH]ncc12 [Example 36, N^4-(2-(isopropylsulfonyl)phenyl)-N^6-(4-methyl-3,4,5,6-tetrahydro-2H-benzo[b] [1,4,7]dioxazolin-9-yl)-1H-pyrazolo[3,4-d]pyrimidin-4,6-diamine] | 25 to 39 |  |  | 40 to 79 |  | 40 to 79 |  |  | > 80 |  |  |  | < 0.05 | 
CN1CCOc2ccc(Nc3nc(-c4cn(C)c5ccccc45)c4cc[nH]c4n3)cc2OCC1 [Example 39, 4-methyl-N-(4-(1-methyl-1H-indol-3-yl)-7H-pyrrolo[2,3-d]pyrimidin-2-yl)-3,4,5,6-tetrahydro-2H-benzo[b][1,4,7]dioxazolin-9-amine] |  |  |  | 25 to 39 |  | 40 to 79 |  |  | 40 to 79 |  |  |  | < 0.05 | 
CN1CCOCCOc2ccc(Nc3ncc(F)c(-c4cnn(C(CC#N)C5CCCC5)c4)n3)cc2OCC1 (centres unmarked) [Example 42, 3-cyclopentyl-3-(4-(5-fluoro-2-((7-methyl-2,3,6,7,8,9-hexahydro-5H-benzo[b][1,4,7]trioxa[10]azacyclododecan-12-yl)amino)pyrimidin-4-yl)-1H-pyrazol-1-yl)propanenitrile] |  |  |  |  | > 80 |  |  | > 80 |  | 25 to 39 |  |  |  | 
CC(C)S(=O)(=O)c1ccccc1Nc1nc(Nc2ccc3c(c2)OCCN(C)CCOCCO3)nc2[nH]ccc12 [Example 53, N^4-(2-(isopropylsulfonyl)phenyl)-N^2-(7-methyl-2,3,6,7,8,9-hexahydro-5H-benzo[b][1,4,7]trioxa[10]azacyclododecan-12-yl)-7H-pyrrolo[2,3-d]pyrimidin-2,4-diamine] |  |  |  |  | 40 to 79 |  | 40 to 79 |  |  | > 80 |  | > 80 |  | 
CN1CCOCCOc2cc(Nc3nc(Nc4cccc(S(N)(=O)=O)c4)c4cc[nH]c4n3)ccc2OCC1 [Example 67, 3-((2-((7-methyl-2,3,6,7,8,9-hexahydro-5H-benzo[b][1,4,7]trioxa[10]azacyclododecan-13-yl)amino)-7H-pyrrolo[2,3-d]pyrimidin-4-yl)amino)benzenesulfonamide] | 25 to 39 |  |  | 40 to 79 |  | 40 to 79 |  |  | > 80 |  |  |  |  | 
CC(=O)N1CCOCCOc2cc(Nc3nc(Nc4ccccc4S(=O)(=O)C(C)C)c4cc[nH]c4n3)ccc2OCC1 [Example 98, 1-(13-((4-((2-(isopropylsulfonyl)phenyl)amino)-7H-pyrrolo[2,3-d]pyrimidin-2-yl)amino)-2,3,5,6,8,9-hexahydro-7H-benzo[b][1,4,7]trioxa[10]azacyclododecan-7-yl)ethan-1-one] |  |  |  |  | 40 to 79 |  | 40 to 79 |  |  | 25 to 39 |  | > 80 | < 0.05 | 
